Results reported in ChEMBL document CHEMBL3046414, “Synthesis, anticancer, anti-HIV-1, and antimicrobial activity of some tricyclic triazino and triazolo[4,3-e]purine derivatives” (Med Chem Res, 2012).

What was measured:
[1] = test system: Human immunodeficiency virus 1; experiment: Antiviral activity against Human immunodeficiency virus 1 infected CEM cells assessed as inhibition of virus-induced cytopathic effect at 2 X 10^-5 M by XTT assay; format: functional; conditions: Human immunodeficiency virus 1, CCRF-CEM
Saccharomyces cerevisiae = experiment: Antimicrobial activity against Saccharomyces cerevisiae ATCC 9763 after 48 hr by agar cup diffusion technique; format: functional
Bacillus spizizenii [2] = experiment: Antimicrobial activity against Bacillus subtilis subsp. spizizenii ATCC 6633 after 24 hr by agar cup diffusion technique; format: functional
Candida albicans = experiment: Antimicrobial activity against Candida albicans NCTC 2708 after 48 hr by agar cup diffusion technique; format: functional
Proteus vulgaris [3] = experiment: Antimicrobial activity against Proteus vulgaris ATCC 49132 after 24 hr by two-fold serial dilution method; format: functional; conditions: ATCC 49132, 24 h
CCRF-CEM [4] = experiment: Cytotoxicity against Homo sapiens (human) CEM cells by XTT assay; format: cell-based
Escherichia coli [5] = experiment: Antimicrobial activity against Escherichia coli 5933 after 24 hr by agar cup diffusion technique; format: functional
Proteus vulgaris [6] = experiment: Antimicrobial activity against Proteus vulgaris ATCC 49132 after 24 hr by agar cup diffusion technique; format: functional
MCF7 = experiment: Anticancer activity against Homo sapiens (human) MCF7 cells assessed as cell growth at 100 uM after 48 hr by Alamar blue assay; format: functional; conditions: MCF7, 48 h, read-out: Activity
NCI-H460 = experiment: Anticancer activity against Homo sapiens (human) NCI-H460 cells assessed as cell growth at 100 uM after 48 hr by Alamar blue assay; format: functional; conditions: NCI-H460, 48 h, read-out: Activity
Pseudomonas aeruginosa [7] = experiment: Antimicrobial activity against Pseudomonas aeruginosa ATCC 9027 after 24 hr by agar cup diffusion technique; format: functional
Staphylococcus aureus [8] = experiment: Antimicrobial activity against Staphylococcus aureus NCTC 4163 after 24 hr by agar cup diffusion technique; format: functional
SF-268 = experiment: Anticancer activity against Homo sapiens (human) SF268 cells assessed as cell growth at 100 uM after 48 hr by Alamar blue assay; format: functional; conditions: SF-268, 48 h, read-out: Activity
[9] = test system: Human immunodeficiency virus 1; experiment: Antiviral activity against Human immunodeficiency virus 1 infected CEM cells assessed as inhibition of virus-induced cytopathic effect at 2 X 10^-4 M by XTT assay; format: functional; conditions: Human immunodeficiency virus 1, CCRF-CEM
[10] = Cytotoxicity against Homo sapiens (human) Breast cancer cell after 48 hr by SRB assay; format: functional; conditions: Cancer cell lines
A498 = experiment: Cytotoxicity against Homo sapiens (human) A498 cells after 48 hr by SRB assay; format: functional; conditions: A498, 48 h
[11] = Cytotoxicity against Homo sapiens (human) Ovarian cancer cell after 48 hr by SRB assay; format: functional; conditions: Cancer cell lines
Salmonella typhi = experiment: Antimicrobial activity against Salmonella enterica subsp. enterica serovar Typhi ATCC 13311 after 24 hr by agar cup diffusion technique; format: functional
Malme-3M = experiment: Cytotoxicity against Homo sapiens (human) MALME-3M cells after 48 hr by SRB assay; format: functional
NCI-H226 = experiment: Cytotoxicity against Homo sapiens (human) NCI-H226 cells after 48 hr by SRB assay; format: functional; conditions: NCI-H226, 48 h
HOP-92 = experiment: Cytotoxicity against Homo sapiens (human) HOP92 cells after 48 hr by SRB assay; format: functional; conditions: HOP-92, 48 h
T47D = experiment: Cytotoxicity against Homo sapiens (human) T47D cells after 48 hr by SRB assay; format: functional
SK-MEL-5 = experiment: Cytotoxicity against Homo sapiens (human) SK-MEL-5 cells after 48 hr by SRB assay; format: functional; conditions: SK-MEL-5, 48 h
[12] = Cytotoxicity against Homo sapiens (human) Prostate cancer cell after 48 hr by SRB assay; format: functional; conditions: Cancer cell lines
CAKI-1 = experiment: Cytotoxicity against Homo sapiens (human) CAKI-1 cells after 48 hr by SRB assay; format: functional; conditions: CAKI-1, 48 h
[13] = Cytotoxicity against Homo sapiens (human) NSCLC cell after 48 hr by SRB assay; format: functional
[14] = Cytotoxicity against Homo sapiens (human) Leukemia cell after 48 hr by SRB assay; format: functional
Aspergillus niger = experiment: Antimicrobial activity against Aspergillus niger ATCC 16404 after 48 hr by agar cup diffusion technique; format: functional
[15] = Cytotoxicity against Homo sapiens (human) Colon cancer cell after 48 hr by SRB assay; format: functional; conditions: Cancer cell lines
UO-31 = experiment: Cytotoxicity against Homo sapiens (human) UO31 cells after 48 hr by SRB assay; format: functional; conditions: UO-31, 48 h
[16] = Cytotoxicity against Homo sapiens (human) Melanoma cell after 48 hr by SRB assay; format: functional
[17] = Cytotoxicity against Homo sapiens (human) CNS cancer cell after 48 hr by SRB assay; format: functional; conditions: Cancer cell lines
[18] = Cytotoxicity against Homo sapiens (human) Renal cancer cell after 48 hr by SRB assay; format: functional; conditions: Cancer cell lines
ACHN = experiment: Cytotoxicity against Homo sapiens (human) ACHN cells after 48 hr by SRB assay; format: functional
CCRF-CEM [19] = experiment: Cytotoxicity against Homo sapiens (human) CCRF-CEM cells after 48 hr by SRB assay; format: functional
Staphylococcus aureus [20] = experiment: Antimicrobial activity against Staphylococcus aureus NCTC 4163 after 24 hr by two-fold serial dilution method; format: functional; conditions: NCTC 4163, 24 h
Pseudomonas aeruginosa [21] = experiment: Antimicrobial activity against Pseudomonas aeruginosa ATCC 9027 after 24 hr by two-fold serial dilution method; format: functional; conditions: ATCC 9027, 24 h
Bacillus spizizenii [22] = experiment: Antimicrobial activity against Bacillus subtilis subsp. spizizenii ATCC 6633 after 24 hr by two-fold serial dilution method; format: functional; conditions: ATCC 6633, 24 h
Aspergillus terreus = experiment: Antimicrobial activity against Aspergillus terreus after 48 hr by agar cup diffusion technique; format: functional
Escherichia coli [23] = experiment: Antimicrobial activity against Escherichia coli 5933 after 24 hr by two-fold serial dilution method; format: functional; conditions: Escherichia coli, 5933, 24 h

CC(=O)c1n[nH]c2nc3c(=O)n(C)c(=O)n(C)c3n2c1=O
inhibition at 20 µM [1]: 1.43% | inhibition zone (IZ) (Saccharomyces cerevisiae): 13 mm | inhibition zone (IZ) (Bacillus spizizenii [2]): 14 mm | inhibition zone (IZ) (Candida albicans): 13 mm | MIC (Proteus vulgaris [3]): < 100 µg/mL | IC50 (CCRF-CEM [4]): > 200 µM | inhibition zone (IZ) (Escherichia coli [5]): 14 mm | inhibition zone (IZ) (Proteus vulgaris [6]): 23 mm

CCOC(=O)c1n[nH]c2nc3c(=O)n(C)c(=O)n(C)c3n2c1=N
growth at 100 µM (MCF7): 93% | inhibition zone (IZ) (Saccharomyces cerevisiae): 15 mm | inhibition zone (IZ) (Bacillus spizizenii [2]): 14 mm | inhibition zone (IZ) (Candida albicans): 17 mm | growth at 100 µM (NCI-H460): 99% | MIC (Proteus vulgaris [3]): < 100 µg/mL | inhibition zone (IZ) (Pseudomonas aeruginosa [7]): 20 mm | inhibition zone (IZ) (Staphylococcus aureus [8]): 16 mm | inhibition zone (IZ) (Escherichia coli [5]): 15 mm | growth at 100 µM (SF-268): 98% | inhibition zone (IZ) (Proteus vulgaris [6]): 22 mm

Cn1c(=O)c2[nH]c(/N=N/c3c(N)n[nH]c3N)nc2n(C)c1=O
inhibition at 200 µM [9]: 30.5% | inhibition zone (IZ) (Saccharomyces cerevisiae): 12 mm | inhibition zone (IZ) (Bacillus spizizenii [2]): 10 mm | inhibition zone (IZ) (Candida albicans): 11 mm | IC50 (CCRF-CEM [4]): > 200 µM | inhibition zone (IZ) (Proteus vulgaris [6]): 14 mm

Cn1c(=O)c2nc3[nH]nc(C#N)c(=N)n3c2n(C)c1=O
growth at 100 µM (MCF7): 14% | GI50 [10]: 91.6 µM | TGI [10]: 100 µM | GI50 (A498): 51.4 µM | GI50 [11]: 97.9 µM | TGI [11]: 100 µM | inhibition zone (IZ) (Salmonella typhi): 12 mm | inhibition zone (IZ) (Saccharomyces cerevisiae): 14 mm | GI50 (Malme-3M): 25.2 µM | inhibition zone (IZ) (Bacillus spizizenii [2]): 14 mm | inhibition zone (IZ) (Candida albicans): 12 mm | growth at 100 µM (NCI-H460): 62% | GI50 (NCI-H226): 54 µM | GI50 (HOP-92): 31.8 µM | GI50 (T47D): 32.9 µM | GI50 (SK-MEL-5): 45.9 µM | GI50 [12]: 86.3 µM | TGI [12]: 100 µM | inhibition zone (IZ) (Pseudomonas aeruginosa [7]): 18 mm | GI50 (CAKI-1): 51.7 µM | GI50 [13]: 87.3 µM | TGI [13]: 100 µM | GI50 [14]: 94.6 µM | TGI [14]: 100 µM | inhibition zone (IZ) (Escherichia coli [5]): 14 mm | inhibition zone (IZ) (Aspergillus niger): 12 mm | GI50 [15]: 100 µM | TGI [15]: 100 µM | GI50 (UO-31): 50.6 µM | GI50 [16]: 81.6 µM | TGI [16]: 96.9 µM | GI50 [17]: 98 µM | TGI [17]: 100 µM | growth at 100 µM (SF-268): 47% | GI50 [18]: 72.2 µM | TGI [18]: 100 µM | inhibition zone (IZ) (Proteus vulgaris [6]): 19 mm | GI50 (ACHN): 44.3 µM | GI50 (CCRF-CEM [19]): 67.8 µM

Cn1c(=O)c2c(n(C)c1=O)n1c(SCc3ccccc3)nnc1n2C
MIC (Staphylococcus aureus [20]): < 25 µg/mL | inhibition at 200 µM [9]: 35.5% | inhibition zone (IZ) (Saccharomyces cerevisiae): 14 mm | inhibition zone (IZ) (Candida albicans): 11 mm | IC50 (CCRF-CEM [4]): > 200 µM | inhibition zone (IZ) (Pseudomonas aeruginosa [7]): 19 mm | inhibition zone (IZ) (Staphylococcus aureus [8]): 26 mm | inhibition zone (IZ) (Escherichia coli [5]): 12 mm | inhibition zone (IZ) (Proteus vulgaris [6]): 18 mm

Cn1c(=O)c2c(n(C)c1=O)n1c(=S)[nH]nc1n2C
MIC (Staphylococcus aureus [20]): < 50 µg/mL | inhibition zone (IZ) (Saccharomyces cerevisiae): 12 mm | inhibition zone (IZ) (Bacillus spizizenii [2]): 11 mm | inhibition zone (IZ) (Candida albicans): 11 mm | inhibition zone (IZ) (Pseudomonas aeruginosa [7]): 21 mm | inhibition zone (IZ) (Staphylococcus aureus [8]): 24 mm | inhibition zone (IZ) (Escherichia coli [5]): 12 mm | inhibition zone (IZ) (Proteus vulgaris [6]): 19 mm | MIC (Pseudomonas aeruginosa [21]): < 100 µg/mL

COc1ccc(-c2nnc3n(C)c4c(=O)n(C)c(=O)n(C)c4n23)cc1
inhibition zone (IZ) (Salmonella typhi): 17 mm | inhibition zone (IZ) (Saccharomyces cerevisiae): 16 mm | MIC (Bacillus spizizenii [22]): < 200 µg/mL | inhibition zone (IZ) (Aspergillus terreus): 16 mm | inhibition zone (IZ) (Bacillus spizizenii [2]): 20 mm | inhibition zone (IZ) (Candida albicans): 18 mm | MIC (Escherichia coli [23]): < 200 µg/mL | MIC (Proteus vulgaris [3]): < 50 µg/mL | inhibition zone (IZ) (Pseudomonas aeruginosa [7]): 21 mm | inhibition zone (IZ) (Staphylococcus aureus [8]): 14 mm | inhibition zone (IZ) (Escherichia coli [5]): 20 mm | inhibition zone (IZ) (Proteus vulgaris [6]): 28 mm | MIC (Pseudomonas aeruginosa [21]): < 200 µg/mL

Cn1c(=O)c2c(n(C)c1=O)n1c(-c3ccc(Cl)cc3)nnc1n2C
growth at 100 µM (MCF7): 82% | MIC (Staphylococcus aureus [20]): < 100 µg/mL | inhibition zone (IZ) (Saccharomyces cerevisiae): 14 mm | inhibition zone (IZ) (Bacillus spizizenii [2]): 13 mm | inhibition zone (IZ) (Candida albicans): 12 mm | growth at 100 µM (NCI-H460): 95% | MIC (Proteus vulgaris [3]): < 100 µg/mL | inhibition zone (IZ) (Pseudomonas aeruginosa [7]): 21 mm | inhibition zone (IZ) (Staphylococcus aureus [8]): 22 mm | inhibition zone (IZ) (Escherichia coli [5]): 12 mm | growth at 100 µM (SF-268): 90% | inhibition zone (IZ) (Proteus vulgaris [6]): 25 mm | MIC (Pseudomonas aeruginosa [21]): < 200 µg/mL
